The values that follow come from the NIST ThermoML archive (doi:10.1016/j.jct.2015.10.018).

The structures appear in SMILES notation. Numbers after ± are expanded uncertainties.

The conditions of data set [1]: 298.15 K; 101.33 kPa; Liquid; Vibrating tube method.
A short description of data set [2]: refractive index (Na D-line) (dimensionless). The conditions noted are these: 298.15 K; 101.33 kPa; Liquid; Standard Abbe refractometry.

For orientation: mass density means mass per unit of volume. For orientation: refractive index means the speed of light in vacuum divided by its phase velocity in the sample.

For `CCn1cc[n+](C)c1.N#CN=C=[N-]` [1-ethyl-3-methylimidazolium dicyanamide], in data set [1], the mass density is listed as 1102.03 ± 1.1 kg/m3. In addition, the refractive index in data set [2] is 1.51452 ± 0.00051.

With `C1CCCCC1` [cyclohexane], the mass density in data set [1] came to 773.88 ± 0.17 kg/m3. The refractive index in data set [2] is 1.42356 ± 0.00033.

In the case of `Cc1ccccc1` [toluene], in data set [1], the mass density was determined as 862.23 ± 0.13 kg/m3. For the same molecule, in data set [2], the refractive index was found to be 1.49398 ± 0.00031.

In the case of `CCCCCCC` [heptane], the mass density in data set [1] was determined as 679.57 ± 0.25 kg/m3. Besides, the refractive index in data set [2] is 1.38529 ± 0.00037.
